Measurements reported in PMC6684226, “Neuropeptide B mediates female sexual receptivity in medaka fish, acting in a female-specific but reversible manner” (eLife, 2019).

Legend:
[1] = system: npba expression in Vs/Vp and PMm/PMg; test: npba expression in brain nuclei of gonad-intact medaka after immersion drug treatment (in situ hybridization); format: in vivo, medaka (Oryzias latipes); settings: ovary-intact adult females, n = 5
Excerpt: (§1) DNA fragments of 645 bp, 647 bp, and 1520 bp corresponding to nucleotides 1–645 of the medaka npba cDNA (GenBank accession number NM_001308979), 1–647 of the medaka npbb EST clone of National BioResource Project (NBRP) Medaka (http://www.shigen.nig.ac.jp/medaka/) (clone ID: olova57o22), and 1699–3218 of the medaka npbwr2 cDNA (deposited in DDBJ/EMBL/GenBank with accession number LC375958), respectively, were PCR-amplified and subcloned into the pGEM-Teasy vector (Promega, Madison, WI). The resultant constructs were used to generate digoxigenin (DIG)-labeled cRNA probes for npba, npbb, and npbwr2 by using the DIG RNA Labeling Mix and T7 RNA polymerase (Roche Diagnostics). The procedure for in situ hybridization has been described previously ([Hiraki et al., 2012]). In brief, the brain, pituitary, and/or spinal cord were fixed in 4% paraformaldehyde (PFA), embedded in paraffin, and cut into 10 μm sections in the coronal plane. Hybridization signals were visualized by using alkaline phosphatase-conjugated anti-DIG antibody (Roche Diagnostics) and 5-bromo-4-chloro-3-indolyl phosphate/nitro blue tetrazolium (BCIP/NBT) substrate (Roche Diagnostics). Color development was allowed to proceed overnight or was stopped after 2–3 hr (for quantification of npba expression in Vs/Vp) or 15–30 min (for quantification of npba expression in PMm/PMg) to avoid saturation. All sections in each comparison were processed simultaneously under the same conditions.
(§2) To obtain quantitative data, the number of npba/npbb-expressing neurons in each brain nucleus or each brain/spinal cord region was counted manually. In some analyses, the resulting sections were photographed and converted to black and white binary images by thresholding using Adobe Photoshop (Adobe Systems, San Jose, CA), and the total area of npba/npbb expression was calculated by using ImageJ (http://rsbweb.nih.gov/ij/). The threshold was set manually by visual inspection of the images to successfully separate specific signals from background noise. Brain nuclei were identified by using medaka brain atlases ([Anken and Bourrat, 1998]; [Ishikawa et al., 1999]); http://www.shigen.nig.ac.jp/medaka/medaka_atlas/), supplemented with information from our Nissl-stained sections ([Kawabata et al., 2012]).
(§3) In another experiment, females with intact ovaries were treated with 100 ng/ml of KT or AI (Fadrozole; Sigma-Aldrich, St. Louis, MO) by immersion in water for 9 days. […] These fish were sampled on days 0 (untreated controls), 2, 5, and 9. The sex steroid concentration used was based on previously reported serum steroid levels in medaka ([Foran et al., 2002]; [Foran et al., 2004]; [Tilton et al., 2003]).

[2] = system: npbb expression in Vs/Vp and PMm/PMg/PPp; test: npbb expression in brain nuclei of gonad-intact medaka after immersion drug treatment (in situ hybridization); format: in vivo, medaka (Oryzias latipes); settings: n = 5
Excerpt: as §1, §2, §3

[3] = system: npba expression in the whole brain; test: npba expression in whole brain of ovariectomized ΔERE mutant females treated with E2 (real-time PCR); format: in vivo, medaka (Oryzias latipes); settings: OVX + 100 ng/ml E2, 6 days, n = 6 per group
[4] = system: npbb expression in Vs/Vp and PMm/PMg/PPp; test: npbb expression in brain nuclei of gonadectomized medaka after sex steroid supplementation (in situ hybridization); format: in vivo, medaka (Oryzias latipes); settings: n = 5
Excerpt: DNA fragments of 645 bp, 647 bp, and 1520 bp corresponding to nucleotides 1–645 of the medaka npba cDNA (GenBank accession number NM_001308979), 1–647 of the medaka npbb EST clone of National BioResource Project (NBRP) Medaka (http://www.shigen.nig.ac.jp/medaka/) (clone ID: olova57o22), and 1699–3218 of the medaka npbwr2 cDNA (deposited in DDBJ/EMBL/GenBank with accession number LC375958), respectively, were PCR-amplified and subcloned into the pGEM-Teasy vector (Promega, Madison, WI). The resultant constructs were used to generate digoxigenin (DIG)-labeled cRNA probes for npba, npbb, and npbwr2 by using the DIG RNA Labeling Mix and T7 RNA polymerase (Roche Diagnostics). […] Color development was allowed to proceed overnight or was stopped after 2–3 hr (for quantification of npba expression in Vs/Vp) or 15–30 min (for quantification of npba expression in PMm/PMg) to avoid saturation. […]
To obtain quantitative data, the number of npba/npbb-expressing neurons in each brain nucleus or each brain/spinal cord region was counted manually. In some analyses, the resulting sections were photographed and converted to black and white binary images by thresholding using Adobe Photoshop (Adobe Systems, San Jose, CA), and the total area of npba/npbb expression was calculated by using ImageJ (http://rsbweb.nih.gov/ij/). […]

[5] = system: npba expression in Vs/Vp and PMm/PMg; design: method as in Kikuchi et al., 2019; settings: adult males treated with estrogen; ref Kikuchi et al., 2019; cited from earlier work
[6] = system: npba expression in Vs/Vp and PMm/PMg; settings: estrogen replacement, ref Hiraki et al., 2014; cited from earlier work
Excerpt: We determined whether the sexual phenotype of npba expression can be reversed from the female to the male pattern, and vice versa, by altering the adult sex steroid milieu. […] Here, we first tested whether npba expression in these brain nuclei can be induced in males by castration and sex steroid supplementation.

[7] = system: ER expression in Vs/Vp and PMm/PMg; settings: males treated with estrogen; ref Hiraki et al., 2012; cited from earlier work
Excerpt: Importantly, our results provide insight into the mechanisms underlying the reversal of sexually dimorphic npba expression. […] Considering these findings, it seems plausible that this estrogen-induced npba expression is not fully realized until sufficient ER expression is achieved.

Cckar expression = settings: ref Xu et al., 2012, cited from earlier work
Excerpt: Another distinctive aspect of npba expression is the bidirectional reversibility of sexual dimorphism (both from female-typical to male-typical pattern and from male-typical to female-typical pattern). […] In mice, for example, the cholecystokinin receptor gene (Cckar) implicated in female sexual receptivity is expressed in the ventr ...

[8] = system: estradiol-17β (E2) in the brain; test: Brain levels of E2 in KT-treated females (LC-MS/MS); format: in vivo, medaka (Oryzias latipes); settings: females treated with 100 ng/ml KT by immersion; within 2 days, low during remainder of treatment; n = 4 per sampling day; p<0.0001 on days 2, 5, and 9
Experimental: as §3
Dissected whole brains were frozen and stored at −80°C until analysis. Levels of E2 in the brains were analyzed by liquid chromatography coupled to tandem mass spectrometry (LC-MS/MS) at Aska Pharmamedical (Kanagawa, Japan).

Compound: N#Cc1ccc(C2CCCc3cncn32)cc1 (stereo not drawn) [AI, Fadrozole]
- number of npba-expressing neurons in Vs/Vp (compared with KT treatment) ([1]; 100 ng/ml AI by immersion, p<0.0001 on days 2, 5, and 9): essentially the same results
- total area of npba expression in Vs/Vp (compared with KT treatment) ([1]; 100 ng/ml AI by immersion, p=0.0063 and 0.0025 on days 5 and 9): essentially the same results
- total area of npba expression in PMm/PMg (compared with KT treatment) ([1]; 100 ng/ml AI by immersion, p=0.0108 on day 9): essentially the same results
- npbb expression in PMm/PMg/PPp (significant decrease) ([2]; ovary-intact adult females, 100 ng/ml AI by immersion, 9 days): not AI treatment
- number of npbb-expressing neurons in Vs/Vp ([2]; ovary-intact adult females, 100 ng/ml AI by immersion, p=0.0002 and <0.0001 on days 5 and 9): undetectable or nearly undetectable levels
- total area of npbb expression in Vs/Vp ([2]; ovary-intact adult females, 100 ng/ml AI by immersion, p=0.0013 and 0.0009 on days 5 and 9): undetectable or nearly undetectable levels

Compound: C[C@]12CC[C@@H]3c4ccc(O)cc4CC[C@H]3[C@@H]1CC[C@@H]2O [E2, estradiol-17β]
- npba expression in the whole brain, mutant versus wild-type females ([3]; p=0.0023): not able to restore npba expression to the level present in wild-type females
- npba expression in the whole brain after ovariectomy and E2 treatment ([3]; ΔERE mutant females): restored by E2 treatment
- npbb-expressing neurons in Vs/Vp of castrated males ([4]; castrated adult males, 100 ng/ml E2, 6 days, p<0.0001): induced a few npbb-expressing neurons in Vs/Vp
- npbb-expressing neurons in Vs/Vp ([2]; testis-intact adult males, 100 ng/ml E2 by immersion, p=0.0369): a few npbb-expressing neurons were newly induced in Vs/Vp

Compound: estrogen
- emergence of Npba-expressing neurons in adult males [5]: emerged in adult males treated with estrogen
- npba expression in Vs/Vp and PMm/PMg of ovariectomized females [6]: restored by estrogen replacement
- ER expression in Vs/Vp and PMm/PMg of males [7]: induces ER expression
- Cckar expression in ventromedial nucleus of the hypothalamus, males (Cckar expression; adult males treated with estrogen): does not induce expression of Cckar
- Cckar expression in ventromedial nucleus of the hypothalamus, females (Cckar expression; ovariectomized adult females treated with estrogen): reinstated by treatment with estrogen

Compound: C[C@]12CC(=O)[C@H]3[C@@H](CCC4=CC(=O)CC[C@@]43C)[C@@H]1CC[C@@H]2O [KT, 11-ketotestosterone]
- number of npba-expressing neurons in PMm/PMg ([1]; 100 ng/ml KT by immersion, 9 days): unchanged
- total area of npba expression in Vs/Vp ([1]; 100 ng/ml KT by immersion, 9 days, p=0.0002 on day 2, p<0.0001 on days 5 and 9): undetectable or nearly undetectable levels
- number of npba-expressing neurons in Vs/Vp ([1]; 100 ng/ml KT by immersion, days 0, 2, 5, 9, p<0.0001 on days 5 and 9 versus day 0): undetectable or nearly undetectable levels
- total area of npba expression in PMm/PMg ([1]; 100 ng/ml KT by immersion, p=0.0068 on day 9): significant decline
- brain E2 levels, percent of untreated controls [8]: less than 5%
- npbb expression in Vs/Vp and PMm/PMg/PPp after ovariectomy (restoration) ([4]; ovariectomized adult females, 100 ng/ml KT, 6 days): not by KT
- npbb expression in PMm/PMg/PPp ([2]; ovary-intact adult females, 100 ng/ml KT by immersion, number of neurons p=0.0038 on day 9, total area p=0.0021 and <0.0001 on days 5 and 9): significant decrease
- number of npbb-expressing neurons in Vs/Vp ([2]; ovary-intact adult females, 100 ng/ml KT by immersion, p<0.0001 on days 5 and 9): undetectable or nearly undetectable levels
- total area of npbb expression in Vs/Vp ([2]; ovary-intact adult females, 100 ng/ml KT by immersion, p=0.0235, <0.0001, <0.0001 on days 2, 5, and 9): undetectable or nearly undetectable levels
